According to US20250120981A1, “MRTX1133 PHARMACEUTICAL COMPOSITIONS” (MIRATI THERAPEUTICS, INC., priority 2023, published 2025):
Several values for one entry are separate records, joined by “and”; a condition that tells them apart may be missing. Equal entries are not always repeated.

Assay: Pharmacokinetics in humans, MRTX1133 formulation, oral, single and multiple doses
Type: in vivo
Conditions: for AUCExtrap, Geo Mean: geometric mean of subjects
Description: The pharmacokinetics [PK] of the MRTX1133 formulation after oral administration has been evaluated in 25 subjects across 3 escalating dose frequencies under fasting conditions (200 mg twice daily [BID], 400 mg BID, and 800 mg BID), as well as evaluation of 400 mg BID when administered with a low-fat meal (i.e., under fed conditions). The mean (+standard deviation) single-dose and multiple-dose pharmacokinetic profiles of the evaluated doses are presented in FIG. 9 and FIG. 10, respectively. Individual single- and multiple-dose PK profiles can be found in FIG. 11. For all figures, the X-axis represents nominal time of sample collection (hours [h]) and the Y-axis represents plasma concentration (ng/mL). Table 10 lists PK data following the oral administration of a single dose and multiple doses of MRTX1133 formulation by dose level and subject.

[1] = multiple oral doses of 800 mg BID, fasted, individual subjects 1-8
[2] = single oral dose of 200 mg, fasted, individual subjects
[3] = single oral dose of 400 mg with a low-fat meal, individual subjects
[4] = single oral dose of 400 mg, fasted, individual subjects
[5] = single oral dose of 800 mg, fasted, individual subjects 1-8

C#Cc1c(F)ccc2cc(O)cc(-c3ncc4c(N5C[C@H]6CC[C@@H](C5)N6)nc(OC[C@@]56CCCN5C[C@H](F)C6)nc4c3F)c12 [MRTX1133, 4-(4-((1R,5S)-3,8-diazabicyclo[3.2.1]octan-3-yl)-8-fluoro-2-(((2R,7aS)-2-fluorohexahydro-1Hpyrrolizin-7a-yl)methoxy)pyrido[4,3-d]pyrimidin-7-yl)-5-ethynyl-6-fluoronaphthalen-2-ol]
AUC0-12 [1]: 227 ng·h/mL and 509 ng·h/mL and 130 ng·h/mL and 744 ng·h/mL and 248 ng·h/mL and 820 ng·h/mL and 264 ng·h/mL
AUC0-12 Accumulation Ratio [1]: 0.79 and 0.20 and 0.71 and 4.46 and 1.87 and 1.41 and 1.05
AUC0-last [1]: 227 ng · h/mL and 509 ng · h/mL and 130 ng · h/mL and 744 ng · h/mL and 248 ng · h/mL and 820 ng · h/mL and 4,458 ng · h/mL and 264 ng · h/mL
Cmax [1]: 38.2 ng/mL and 241 ng/mL and 34.4 ng/mL and 165 ng/mL and 29.8 ng/mL and 105 ng/mL and 812 ng/mL and 72.6 ng/mL
Cmax Accumulation Ratio [1]: 0.30 and 0.14 and 0.34 and 2.57 and 1.24 and 1.30 and 1.86 and 1.68
Peak to Trough Ratio [1]: 15.0 and 12.5 and 17.1 and 13.8 and 2.81 and 2.88 and 10.4 and 20.0
Tlast [1]: 12 h (7×) and 8 h
Tmax [1]: 6.0 h and 0.5 h (3×)
Plasma concentration (single oral dose of 200 mg, fasted, 0 h, individual subjects): BQL
Plasma concentration (single oral dose of 200 mg, fasted, 0.5 h, individual subjects): BQL
Plasma concentration (single oral dose of 200 mg, fasted, 1 h, individual subjects): 116 ng/mL and 6.88 ng/mL and 44.6 ng/mL (2×) and 9.39 ng/mL
Plasma concentration (single oral dose of 200 mg, fasted, 1.5 h, individual subjects): 49.8 ng/mL and 3.38 ng/mL and 57.9 ng/mL and 41.4 ng/mL and 42.7 ng/mL
Plasma concentration (single oral dose of 200 mg, fasted, 2 h, individual subjects): 20.4 ng/mL and 4.01 ng/mL and 26.7 ng/mL and 23.5 ng/mL and 122 ng/mL
Plasma concentration (single oral dose of 200 mg, fasted, 48 h, individual subjects): BQL
Plasma concentration (single oral dose of 200 mg, fasted, 72 h, individual subjects): BQL
Plasma concentration (single oral dose of 200 mg, fasted, 96 h, individual subjects): BQL
AUCExtrap, Geo Mean (single oral dose of 200 mg, fasted): 7.4%
AUC0-12 [2]: 140 ng·h/mL and 89.2 ng·h/mL and 98.1 ng·h/mL and 99.3 ng·h/mL and 585 ng·h/mL
AUC0-inf [2]: 157 ng · h/mL and 107 ng · h/mL (2×) and 103 ng · h/mL and 653 ng · h/mL
AUC0-last [2]: 152 ng·h/mL and 89.2 ng·h/mL and 98.1 ng·h/mL and 99.3 ng·h/mL and 585 ng·h/mL
AUCExtrap [2]: 3.42% and 16.3% and 4.88% and 7.77% and 10.4%
Cmax [2]: 116 ng/mL and 21.0 ng/mL and 57.9 ng/mL and 44.6 ng/mL and 122 ng/mL
Tlast [2]: 24 h and 12 h (3×) and 12^a h
Plasma concentration (single oral dose of 400 mg with a low-fat meal, 0 h, individual subjects): BQL
Plasma concentration (single oral dose of 400 mg with a low-fat meal, 1 h, individual subjects): 77.0 ng/mL and 18.7 ng/mL and 28.2 ng/mL and 85.1 ng/mL and 24.7 ng/mL
Plasma concentration (single oral dose of 400 mg with a low-fat meal, 2 h, individual subjects): 83.2 ng/mL and 39.9 ng/mL and 6.47 ng/mL and 76.4 ng/mL and 12.0 ng/mL
Plasma concentration (single oral dose of 400 mg with a low-fat meal, 3 h, individual subjects): 71.5 ng/mL and 3.84 ng/mL and 85.8 ng/mL and 13.6 ng/mL
Plasma concentration (single oral dose of 400 mg with a low-fat meal, 4 h, individual subjects): 65.9 ng/mL and 93.9 ng/mL and 2.43 ng/mL and 99.8 ng/mL and 36.5 ng/mL
Plasma concentration (single oral dose of 400 mg with a low-fat meal, 5 h, individual subjects): 41.4 ng/mL (2×) and 1.41 ng/mL and 163 ng/mL and 22.5 ng/mL
Plasma concentration (single oral dose of 400 mg with a low-fat meal, 6 h, individual subjects): 59.5 ng/mL and 16.9 ng/mL and 1.02 ng/mL and 125 ng/mL and 15.5 ng/mL
Plasma concentration (single oral dose of 400 mg with a low-fat meal, 12 h, individual subjects): BQL
AUCExtrap, Geo Mean (single oral dose of 400 mg with a low-fat meal): 6.3%
AUC0-12 [3]: 564 ng·h/mL and 305 ng·h/mL and 42.6 ng·h/mL and 889 ng·h/mL and 169 ng·h/mL
AUC0-inf [3]: 651 ng · h/mL and 317 ng · h/mL and 43.2 ng · h/mL and 1,351 ng · h/mL and 200 ng · h/mL
AUC0-last [3]: 564 ng · h/mL and 305 ng · h/mL and 42.6 ng · h/mL and 1,307 ng · h/mL and 169 ng · h/mL
AUCExtrap [3]: 13.4% and 3.77% and 3.88% and 3.25% and 15.3%
Cmax [3]: 83.2 ng/mL and 93.9 ng/mL and 28.2 ng/mL and 163 ng/mL and 36.5 ng/mL
Tlast [3]: 12 h (3×) and 8 h and 96 h
Tmax [3]: 5.0 h
Plasma concentration (single oral dose of 400 mg, fasted, 0 h, individual subjects): BQL
Plasma concentration (single oral dose of 400 mg, fasted, 0.5 h, individual subjects): BQL
AUCExtrap, Geo Mean (single oral dose of 400 mg, fasted): 7.6%
AUC0-inf [4]: 636 ng · h/mL and 98.4 ng · h/mL and 137 ng · h/mL and 169 ng · h/mL and 126 ng · h/mL and 1,950 ng · h/mL and 670 ng · h/mL
AUCExtrap [4]: 4.07% and 4.18% and 6.90% and 10.7% and 6.70% and 13.0% and 13.4%
Cmax [4]: 62.1 ng/mL and 62.0 ng/mL and 66.3 ng/mL and 71.0 ng/mL and 37.0 ng/mL and 281 ng/mL and 188 ng/mL
Tlast [4]: 96 h and 12 h (6×)
Tmax [4]: 0.5 h
Plasma concentration (single oral dose of 800 mg, fasted, 0 h, individual subjects): BQL
Plasma concentration (single oral dose of 800 mg, fasted, 48 h, individual subject): BQL
Plasma concentration (single oral dose of 800 mg, fasted, 72 h, individual subject): BQL
Plasma concentration (single oral dose of 800 mg, fasted, 96 h, individual subject): BQL
AUCExtrap (single oral dose of 800 mg, fasted, Geo Mean of subjects): 5.6%
AUC0-12 [5]: 287 ng · h/mL and 2,573 ng · h/mL and 182 ng · h/mL and 167 ng · h/mL and 133 ng · h/mL and 583 ng · h/mL and 3,221 ng · h/mL and 251 ng · h/mL
AUC0-inf [5]: 317 ng · h/mL and 2,665 ng · h/mL and 185 ng · h/mL and 181 ng · h/mL and 141 ng · h/mL and 708 ng · h/mL and 4,902 ng · h/mL
AUC0-last [5]: 315 ng · h/mL and 2,573 ng · h/mL and 182 ng · h/mL and 167 ng · h/mL and 133 ng · h/mL and 583 ng · h/mL and 4,421 ng · h/mL and 251 ng · h/mL
AUCExtrap [5]: 4.05% and 3.44% and 1.58% and 8.08% and 5.77% and 17.7% and 9.81%
Cmax [5]: 129 ng/mL and 1,760 ng/mL and 101 ng/mL and 64.3 ng/mL and 24.0 ng/mL and 80.5 ng/mL and 437 ng/mL and 43.3 ng/mL
Tlast [5]: 24 h (2×) and 12 h (6×)
Tmax [5]: 0.5 h and 12 h
